Measurements from the supplement of paper PMC10307832.

How the values were obtained:
Experiment in all cases: relative viability (nuclei count vs DMSO), 5 days (fraction); higher = more cells survive
Wnt-C59 + Lapatinib = compound: CC1=NC=CC(=C1)C2=CC=C(C=C2)CC(=O)NC3=CC=C(C=C3)C4=CN=CC=C4 [Wnt-C59] + CS(=O)(=O)CCNCc1ccc(-c2ccc3ncnc(Nc4ccc(OCc5cccc(F)c5)c(Cl)c4)c3c2)o1 [Lapatinib] (partner 2 µM)
Procedure, shortened: (§1)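 For relative viability, nuclei counts in treated wells were divided by those in vehicle wells. Lung cancer cell lines had been pin-tool dosed in 1536-well plates the day after seeding and cultured for 5 days, then fixed and stained in one step (final 0.05% Triton X-100, 1% formaldehyde, 1 ug/ml Hoechst) and imaged at 4×. Doses were one drug alone or a fixed anchor-drug dose plus five library-drug doses (not always all listed) in √10 steps, and values are duplicate-plate medians.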

Wnt-C59 + Alpelisib = compound: CC1=NC=CC(=C1)C2=CC=C(C=C2)CC(=O)NC3=CC=C(C=C3)C4=CN=CC=C4 [Wnt-C59] + Cc1nc(NC(=O)N2CCC[C@H]2C(N)=O)sc1-c1ccnc(C(C)(C)C(F)(F)F)c1 [Alpelisib] (partner 2 µM)
Procedure, shortened: as §1

Lapatinib + Foretinib = compound: CS(=O)(=O)CCNCc1ccc(-c2ccc3ncnc(Nc4ccc(OCc5cccc(F)c5)c(Cl)c4)c3c2)o1 [Lapatinib] + COc1cc2c(Oc3ccc(NC(=O)C4(C(=O)Nc5ccc(F)cc5)CC4)cc3F)ccnc2cc1OCCCN1CCOCC1 [Foretinib] (partner 0.25 µM)
Procedure, shortened: as §1

Lapatinib + Phenformin = compound: CS(=O)(=O)CCNCc1ccc(-c2ccc3ncnc(Nc4ccc(OCc5cccc(F)c5)c(Cl)c4)c3c2)o1 [Lapatinib] + N=C(N)NC(=N)NCCc1ccccc1 [Phenformin] (partner 250 µM)
Procedure, shortened: as §1

Cell Line	relative viability (Wnt-C59 + Lapatinib; first compound 0.001 µM)	relative viability (Wnt-C59 + Lapatinib; first compound 0.01 µM)	relative viability (Wnt-C59 + Lapatinib; first compound 0.03162 µM)	relative viability (Wnt-C59 + Lapatinib; first compound 0.1 µM)	relative viability (Wnt-C59 + Alpelisib; first compound 0.001 µM)	relative viability (Wnt-C59 + Alpelisib; first compound 0.01 µM)	relative viability (Wnt-C59 + Alpelisib; first compound 0.03162 µM)	relative viability (Wnt-C59 + Alpelisib; first compound 0.1 µM)	relative viability (Lapatinib + Foretinib; first compound 0.02 µM)	relative viability (Lapatinib + Foretinib; first compound 0.06325 µM)	relative viability (Lapatinib + Foretinib; first compound 0.2 µM)	relative viability (Lapatinib + Foretinib; first compound 0.6325 µM)	relative viability (Lapatinib + Foretinib; first compound 2 µM)	relative viability (Lapatinib + Phenformin; first compound 0.02 µM)	relative viability (Lapatinib + Phenformin; first compound 0.06325 µM)	relative viability (Lapatinib + Phenformin; first compound 0.2 µM)	relative viability (Lapatinib + Phenformin; first compound 0.6325 µM)	relative viability (Lapatinib + Phenformin; first compound 2 µM)
LU99A	0.905	0.999	1.07	0.97	0.496	0.566	0.604	0.538	0.784	0.72	0.74	0.836	0.815	0.379	0.712	0.743	0.866	0.792
LXF-289	0.925	0.903	0.891	0.849	1.05	1.03	1.04	1.02	0.996	0.953	0.967	0.948	0.851	0.142	0.482	0.509	0.488	0.52
NCI-H23	1.14	1.11	1.31	0.958	0.68	0.663	0.822	0.584			0.908	0.958	0.898			0.792	0.805	0.761
NCI-H322M	0.638	0.585	0.594	0.538	0.747	0.715	0.718	0.478	1.04	0.809	0.944	0.911	0.611	0.805	0.736	0.736	0.693	0.551
NCI-H358	0.44	0.524	0.474	0.456	0.917	0.825	0.901	0.905	0.613	0.33	0.422	0.317	0.17	0.25	0.107	0.222	0.215	0.171
NCI-H460	0.863	0.999	1.11	0.889	0.45	0.46	0.472	0.413	0.923	1	0.998	0.966	0.69	0.487	0.48	0.52	0.504	0.446
NCI-H520	0.809	0.894	0.878	0.827	0.932	0.969	1.06	0.785	0.891	0.672	0.855	1.01	0.67	0.516	0.596	0.542	0.653	0.638
NCI-H596	1.07	1.1	1.2	1.13	0.528	0.396	0.615	0.475		0.832	0.756	0.835	0.789		0.654	0.748	0.762	0.685
NCI-H647	1.04	1.08	1.21	1.04	1.15	1.11	1.23	1	1.06	1.16	1.22	1.01	1.2	0.352	0.416	0.517	0.631	0.219
NCI-H650	0.532	0.846	0.895	0.873	1.01	1.24	1.23	1.11		0.94	0.989	1.06	0.979		0.467	0.428	0.456	0.473
NCI-H661	0.418	0.613	0.558	0.577	0.621	0.595	0.813	0.821	0.972	0.926	0.856	0.666	0.62	0.273	0.263	0.273	0.265	0.268
NCI-H727	0.891	0.761	0.787	0.966	0.584	0.546	0.741	0.421	0.617		0.673	0.708	0.691			0.536	0.511	0.508
NCI-H838	0.901	0.924	1.07	1.08	1.06	0.98	1.13	1.02	1.1	0.951	1.14	1.06	0.866	0.685	0.381	0.675	0.683	0.511
NCI-H1355	1.04	0.922	1.05	0.842	1.01	0.746	0.801	0.733		0.795	0.94	0.93	0.657		0.37	0.455	0.428	0.367
NCI-H1395	1.03	0.972	1.1	0.991	0.993	1.13	1.08	1.07	1.03	1.04	1.01	0.929	0.917	0.45	0.431	0.442	0.444	0.432
NCI-H1437	0.851	0.8	0.89	0.828	1.07	0.917	1.09	0.946	1.23	1.33	1.32	1.2	1.12	0.289	0.278	0.258	0.303	0.253
NCI-H1563	0.873	1.04	0.896	0.882	0.925	0.852	1.07	0.888	0.861	0.881	0.953	0.831	0.857	0.626	0.645	0.69	0.76	0.688
NCI-H1651	0.838	0.821	0.737	0.783	1.04	0.956	0.934	0.815	0.716	0.776	0.764	0.695	0.611	0.35	0.25	0.34	0.308	0.374
NCI-H1666	0.675	0.516	0.659	0.75	0.874	0.895	0.974	0.942	0.815	0.868	0.873	0.652	0.558	0.555	0.545	0.592	0.611	0.461

Cell Line	relative viability (Wnt-C59 + Lapatinib; first compound 0.001 µM)	relative viability (Wnt-C59 + Lapatinib; first compound 0.01 µM)	relative viability (Wnt-C59 + Lapatinib; first compound 0.03162 µM)	relative viability (Wnt-C59 + Lapatinib; first compound 0.1 µM)	relative viability (Wnt-C59 + Alpelisib; first compound 0.001 µM)	relative viability (Wnt-C59 + Alpelisib; first compound 0.01 µM)	relative viability (Wnt-C59 + Alpelisib; first compound 0.03162 µM)	relative viability (Wnt-C59 + Alpelisib; first compound 0.1 µM)	relative viability (Lapatinib + Foretinib; first compound 0.02 µM)	relative viability (Lapatinib + Foretinib; first compound 0.06325 µM)	relative viability (Lapatinib + Foretinib; first compound 0.2 µM)	relative viability (Lapatinib + Foretinib; first compound 0.6325 µM)	relative viability (Lapatinib + Foretinib; first compound 2 µM)	relative viability (Lapatinib + Phenformin; first compound 0.02 µM)	relative viability (Lapatinib + Phenformin; first compound 0.06325 µM)	relative viability (Lapatinib + Phenformin; first compound 0.2 µM)	relative viability (Lapatinib + Phenformin; first compound 0.6325 µM)	relative viability (Lapatinib + Phenformin; first compound 2 µM)
NCI-H1734	0.948	1.04	1.09	1.02	0.807	0.68	0.703	0.726	0.842	0.694	0.804	0.888	0.779	0.407	0.288	0.374	0.451	0.414
NCI-H1755	1.01	0.98	1.03	0.952	0.932	0.891	0.907	0.908	0.866	0.865	0.898	0.896	0.892	0.409	0.595	0.642	0.59	0.59
NCI-H1793	0.787	0.555	0.717	0.855	0.827	0.536	0.898	0.668		0.5	0.497	0.524	0.422		0.313	0.265	0.329	0.225
NCI-H1915	0.88	0.939	1.03	0.944	1.07	1.01	1.07	1.03		1.06	1.12	1.08	1.09		0.375	0.384	0.361	0.39
NCI-H1944	0.745	0.795	0.866	0.769	0.767	0.755	0.785	0.755	0.836	0.637	0.745	0.723	0.537	0.178	0.14	0.188	0.193	0.186
NCI-H1975	0.816	0.863	0.934	0.882	0.67	0.591	0.707	0.704	0.924	0.855	1.02	0.835	0.715	0.413	0.362	0.385	0.399	0.385
NCI-H1993	0.734	0.832	0.852	0.825	0.763	0.642	0.682	0.708	0.691		0.75	0.71	0.762	0.597		0.509	0.583	0.556
NCI-H2009	0.993	1.04	0.903	0.881	1.15	1.16	1.14	1.18	1.17	1.25	1.26	1.22	1.17	0.528	0.484	0.507	0.513	0.457
NCI-H2023	0.715	0.93	1.17	0.666	0.627	0.622	0.656	0.508			0.685	0.437	0.357	0.395		0.417	0.429	0.307
NCI-H2085	0.8	0.726	0.771	0.819	0.998	0.97	0.888	0.904		0.737	0.899	0.862	0.535		0.64	0.735	0.61	0.458
NCI-H2087	1.01	1.04	1.08	0.908	1.18	1.05	0.996	1.05		0.942	1.17	0.994	0.962		0.354	0.485	0.552	0.406
NCI-H2126	0.78	0.731	0.792	0.772	0.742	0.703	0.788	0.723			1.13	1.03	0.612		0.393	0.529	0.536	0.406
NCI-H2170	0.265	0.262	0.275	0.271	0.813	0.675	0.987	0.841	1.05	0.961	0.784	0.655	0.25	0.351	0.408	0.455	0.359	0.198
NCI-H2228	1.3	1.07	0.801	0.874	0.816	0.74	0.929	0.751	0.837	0.714	0.96	0.826	0.701	0.33	0.25	0.245	0.292	0.325
NCI-H2347	0.961	0.861	0.976	0.854	0.936	1.01	0.9	0.984		0.694	0.854	0.994	1.02		0.376	0.498	0.641	0.337
NCI-H2405	1.02		0.968	0.95	0.89		0.646	0.789	1.04	0.911	1.05	1.02	0.92	0.321	0.278	0.405	0.372	0.357
NCI-H3122	0.967	1.07	0.993	1.04	0.836	0.784	0.872	0.716	0.944	0.901	0.96	0.872	0.928		0.379	0.392	0.385	0.33
PC-3 [JPC-3]	0.465	0.459	0.447	0.496	1.02	1.05	1.04	1.07	1.04	0.989	1.03	1.09	0.471	0.452	0.468	0.457	0.521	0.431
